# Measured values published in US6287813A, “Antibiotic-based gene regulation system” (Cistronics Cell Technology GmbH, priority 1999, dated 2001).
# Tests used:
# [1] = target: T1, PIT/PPIR system (Streptomyces coelicolor, UniProt Q9ADN3); test: Positive feedback vector pMF170 (PPIR-GFP-IRES-PIT-pA), GFP fluorescence microscopy; format: cell-based; details: pMF170 in CHO-K1, BHK-21 or HeLa cells
# T1 construct: pMF156/pTWIN in CHO cells, PPIR-SEAP or GFP reporter
# T1 sequence (Q9ADN3 1-252): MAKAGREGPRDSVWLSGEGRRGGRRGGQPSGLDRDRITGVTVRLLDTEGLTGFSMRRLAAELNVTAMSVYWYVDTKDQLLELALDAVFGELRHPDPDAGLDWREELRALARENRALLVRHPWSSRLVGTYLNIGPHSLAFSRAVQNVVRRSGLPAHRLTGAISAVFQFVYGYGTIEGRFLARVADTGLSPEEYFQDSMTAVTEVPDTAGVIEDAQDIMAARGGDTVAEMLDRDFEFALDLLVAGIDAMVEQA
# Excerpt: These positive feedback regulation vectors that were constructed contain both the green fluorescent protein GFP and PIT in a dicistronic, PPIR -driven configuration.
# For construction of the autoregulatory system, PIT was excised from pMF156 by EcoRI/HindIII and cloned into the polylinker of the eukaryotic expression vector pSBC-2 (EcoRI/HindIII). As a pSBC-2 derivative, the resulting plasmid pMF169 is compatible to the pSBC-1 derivative pMF164 (PPIR -GFP) and allows fusion of both expression units via their SspI/NotI restriction sites, thereby generating pMF170. pMF170 contains a dicistronic PPIR -regulated expression unit encoding GFP in the first and PIT in the second cistron. Cap-independent translation initiation of the second cistron is enabled by a picornaviral internal ribosomal entry site (IRES) encoded upstream of PIT.
# [2] = target: T1, PIT/PPIR system; test: SEAP reporter assay, CHO-TWIN clones transfected with pMF172 (PPIR-SEAP); format: cell-based; details: for SEAP Production (%): 48 h, no inducer = 100
# Excerpt: pTWIN contains both PIT and tTA in a PSV40 -driven dicistronic configuration. For construction of pTWIN, PIT was first transferred from pMF156 as an EcoRI/HindIII fragment to the corresponding sites of pSBC-1 (EcoRI/HindIII; resulting in pMF167) before the PIT expression unit could be fused to the tTA expression unit contained on pSBC2-tTA (Fussenegger et al., 1997, supra) via SspI/NotI sites. Thus, pTWIN contains the dicistronic PSV40 -PIT-IRES-tTA-pA expression cassette.
# Chinese hamster ovary cells (CHO-K1, ATCC: CCL 61), Baby hamster kidney cells (BHK-21, ATCC: CRL-8544), and HeLa cells (ATCC: CRL-7923) as well as stable cell lines CHO-PIT1, CHO-PIT2, CHO-TWIN195, CHO-TWIN1108 and CHO-PIT1-SEAP were cultured as described before (Fussenegger et al., 1998, Nat. Biotechnol. 16,468-472) in the presence of appropriate antibiotics: G418 400 μg/ml; zeocin 100 μg/ml. Optimized CaPO4 protocols were used for high efficiency transient transfection of all cell lines (id). Transient transfected cells were routinely analyzed after 48 h for GFP or SEAP expression using fluorescence microscopy and p-nitrophenolphosphate-based light absorbance timecourse, respectively, as described before (Fussenegger et al., 1998, Nat. Biotechnol. 16, 468-472; Berger et al., 1988, Gene 66, 1-10 b). For construction of stable CHO-PIT and CHO-TWIN cell lines, CHO-K1 was cotransfected either with pMF156 or pTWIN1 and pSV2neo carrying the G418 resistance gene. CHO-PIT1-SEAP was constructed by cotransfection of pMF172 and pZeoSV2 (Invitrogen). For assessment of dose-response characteristics of PPIR -regulated gene expression, CHO-PIT1-SEAP were cultured at cell densities of 150,000/ml for 48 at various PI concentrations. The mixed populations were cloned using FACS-mediated single-cell-sorting (FACStar^Plus; Beckton Dickinson). Gel retardation assay were performed as described (Salah-Bey et al., 1995, supra) using Pip purified from an overproducing strain of E. coli. Pip (0.02 pmol) was titrated with a range of antibiotic concentrations in a reaction volume of 20 μl. Protein solutions were pre-incubated at room temperature for 15 min. in the absence or presence of PI or its derivative quinupristin in a buffer containing 10 mM Tris (pH 7.8), 10 mM MgCl2, 300 mM NaCl, 2 mM DTT and 10% glycerol. An EcoRI-HindII PPTR fragment (0.02 pmol) containing three Pip binding sites (radiolabelled using α-^32 P)dATP was added and incubated for 15 min. To minimize nonspecific protein binding and increase protein stability, 2 μg of poly dIdC and 20 μg BSA were included in the incubation mix. Protein-DNA complexes were separated on 5% polyacrylamide,TBE gels and visualized by autoradiography.
# CHO-TWIN195 and CHO-TWIN1108 were transfected under identical conditions with the isogenic plasmids containing the SEAP gene under control of the tTA-activated promoter PhCMV*-1 (pMF111) or the PIT-activated promoter PPIR (pMF172). Transfected cells were grown for 48 h in the presence or absence of either antibiotic prior to assay of SEAP activity.
# Table 6: Comparison of the regulation performance of streptogramin- (PI and virginiamycin; VIR) and tetracycline-based gene regulation systems. The two cell clones CHO-TWIN195 and CHO-TWIN1108 containing both pristinamycin- and tetracycline-dependent transactivators were transfected with either the streptogramin-responsive or the TET-responsive SEAP reporter plasmids pMF172 (PPIR -SEAP) and pMF111 (PhCMV*-1 -SEAP), respectively, and the relative SEAP production was assessed. SEAP production values are normalized by SEAP activities under the antibiotic-free, active promoter conditions as follows: pMF172 in CHO-TWIN195:1.7 mU/ml; in CHO-TWIN1108 : 1.8 mU/ml. pMF111 in CHO-TWIN195 : 18.6 mU/ml; in CHO-TWIN1108 : 19.2 mU/ml.
# Table 7: Compatibility of the streptogramin- and tetracycline-based gene regulation systems. Crossregulation of pristinamycin (PI) and the tetracyclines doxycycline (DOX) and tetracycline (TET). […]
substance,measurement,setting,value
pristinamycin I [PI],GFP-expression in the presence of PI,[1],completely repressed
same,Induction factor (IF; ratio of maximal expression level to antibiotic-repressed expression level),[2]; CHO-TWIN195 + pMF172,12
same,SEAP Production (%),[2]; CHO-TWIN195 + pMF172,8.84 ± 0.01%
same,Induction factor (IF; ratio of maximal expression level to antibiotic-repressed expression level),[2]; CHO-TWIN1108 + pMF172,45
same,SEAP Production (%),[2]; CHO-TWIN1108 + pMF172,2.2 ± 0.4%
